Inconclusive results and toxic doses are left out. Rule for the calls: active = survival T/C of 150% or more; inactive = T/C below 125% in these data.
Tested on: CD2F1 mice, L1210 leukemia ip, survival T/C
Experiment: NCI In Vivo Anticancer Drug Screen. Data for tumor model L1210 Leukemia (intraperitoneal) in CD2F1 (CDF1) mice
Settings: endpoint: mean survival time, higher = longer survival
Procedure, shortened: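 Antitumor effect is scored in animals hosting a serially transplanted tumor. Values compare compound-dosed animals against vehicle-only controls as a simple quotient.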

[1] = dose: 100.0 mg/kg/injection, schedule: Q01DX009 (ip), vehicle: saline with Tween-80
[2] = dose: 200.0 mg/kg/injection, schedule: Q01DX009 (ip), vehicle: saline with Tween-80
[3] = dose: 400.0 mg/kg/injection, schedule: Q01DX009 (ip), vehicle: saline with Tween-80
[4] = dose: 12.5 mg/kg/injection, schedule: Q01DX009 (ip), vehicle: water
[5] = dose: 100.0 mg/kg/injection, schedule: Q04DX003 (ip), vehicle: saline with Tween-80
[6] = dose: 200.0 mg/kg/injection, schedule: Q04DX003 (ip), vehicle: saline with Tween-80
[7] = dose: 400.0 mg/kg/injection, schedule: Q04DX003 (ip), vehicle: saline with Tween-80
[8] = dose: 100.0 mg/kg/injection, schedule: Q01DX001 (ip), vehicle: saline with Tween-80
[9] = dose: 200.0 mg/kg/injection, schedule: Q01DX001 (ip), vehicle: saline with Tween-80
[10] = dose: 400.0 mg/kg/injection, schedule: Q01DX001 (ip), vehicle: saline with Tween-80

Measured: T/C

CC(=O)OCc1ccc2ccccc2c1
inactive: [1] 100 % of control | [2] 102 % of control | [3] 118 % of control

CC12CCC3C(CC=C4CC([Se]C(=N)N)CCC43C)C1CCC2=O (centres undefined)
inactive: dose: 75.0 mg/kg/injection, schedule: Q01DX001 (ip), vehicle: steriod suspending solution 95 % of control | dose: 150.0 mg/kg/injection, schedule: Q01DX001 (ip), vehicle: steriod suspending solution 95 % of control | dose: 300.0 mg/kg/injection, schedule: Q01DX001 (ip), vehicle: steriod suspending solution 95 % of control

CC(=O)C1CC(=O)c2c(O)ccc(O)c2C1 (centres undefined)
inactive: [4] 95 % of control | dose: 25.0 mg/kg/injection, schedule: Q01DX009 (ip), vehicle: water 101 % of control | dose: 50.0 mg/kg/injection, schedule: Q01DX009 (ip), vehicle: water 95 % of control | dose: 100.0 mg/kg/injection, schedule: Q01DX009 (ip), vehicle: water 100 % of control | dose: 200.0 mg/kg/injection, schedule: Q01DX009 (ip), vehicle: water 100 % of control

O=S(=O)(Nc1ccccn1)c1ccc(Cl)cc1
inactive: [5] 91 % of control | [6] 95 % of control | [7] 90 % of control

Oc1cc2c3c(c1)c1cc4c(cc1c[n+]3CC2)OCO4
inactive: dose: 3.13 mg/kg/injection, schedule: Q01DX009 (ip), vehicle: other 115 % of control | dose: 3.13 mg/kg/injection, schedule: Q01DX009 (ip), vehicle: water 124 % of control | [4] 122 % of control | dose: 25.0 mg/kg/injection, schedule: Q01DX009 (ip), vehicle: other 115 % of control

CSc1c(Cl)cc(Cl)cc1C(=O)O
inactive: [5] 94 % of control | [6] 91 % of control | [7] 96 % of control

CC(C)(C)C1CCC(S(=O)c2ccccc2)CC1 (centres undefined)
inactive: [8] 105 % of control | dose: 100.0 mg/kg/injection, schedule: Q04DX002 (ip), vehicle: saline with Tween-80 90 % of control | [9] 100 % of control | dose: 200.0 mg/kg/injection, schedule: Q04DX002 (ip), vehicle: saline with Tween-80 93 % of control | [10] 103 % of control | dose: 400.0 mg/kg/injection, schedule: Q04DX002 (ip), vehicle: saline with Tween-80 93 % of control

BrCc1ccccc1C[P+](c1ccccc1)(c1ccccc1)c1ccccc1
inactive: dose: 3.13 mg/kg/injection, schedule: Q01DX009 (ip), vehicle: saline sonified 107 % of control | dose: 6.25 mg/kg/injection, schedule: Q01DX009 (ip), vehicle: saline sonified 96 % of control | dose: 12.5 mg/kg/injection, schedule: Q04DX003 (ip), vehicle: saline sonified 107 % of control | dose: 25.0 mg/kg/injection, schedule: Q04DX003 (ip), vehicle: saline sonified 100 % of control

CC(=O)CC(=O)c1ccccc1.CC(=O)CC(=O)c1ccccc1.[Cl][Sn][Cl]
inactive: [8] 92 % of control | [9] 100 % of control | [10] 107 % of control

CS(=O)(=O)C(Cl)(Cl)S(C)(=O)=O
inactive: dose: 6.25 mg/kg/injection, schedule: Q04DX003 (ip), vehicle: saline with Tween-80 95 % of control | dose: 12.5 mg/kg/injection, schedule: Q04DX003 (ip), vehicle: saline with Tween-80 91 % of control | dose: 25.0 mg/kg/injection, schedule: Q04DX003 (ip), vehicle: saline with Tween-80 91 % of control

O=S(OCC1COS(=O)O1)OCC1COS(=O)O1 (centres undefined)
inactive: dose: 100.0 mg/kg/injection, schedule: Q01DX001 (ip), vehicle: saline sonified 106 % of control | dose: 200.0 mg/kg/injection, schedule: Q01DX001 (ip), vehicle: saline sonified 97 % of control | dose: 400.0 mg/kg/injection, schedule: Q01DX001 (ip), vehicle: saline sonified 104 % of control

Cc1ccc(-c2csc(/N=C/c3ccccc3O)n2)cc1
inactive: [8] 89 % of control | [9] 86 % of control | [10] 86 % of control

CN(C)c1ccc(/C=C(\C#N)c2ccc([N+](=O)[O-])cc2)c(Cl)c1
inactive: [1] 97 % of control | [2] 97 % of control | [3] 92 % of control

CC(=O)NC(=S)NC(C)=O
inactive: dose: 75.0 mg/kg/injection, schedule: Q04DX003 (ip), vehicle: saline 103 % of control | dose: 150.0 mg/kg/injection, schedule: Q04DX003 (ip), vehicle: saline 103 % of control | dose: 300.0 mg/kg/injection, schedule: Q04DX003 (ip), vehicle: saline 107 % of control

— PubChem BioAssay AID256 (DTP/NCI, 2004)
